The results in this text go back to patent US10183949B2, “Pyrimidinone derivative having autotaxin-inhibitory activity” (The University of Tokyo, priority 2014, dated 2019).

The test addresses T1, Human autotaxin enzyme (Homo sapiens, UniProt Q13822).
T1 construct: purchased R&D System
The test is described as follows: Evaluation of autotaxin inhibitor, 18:0 Lyso PC / choline assay (Test Example 2). The class given is biochemical. Particulars: human autotaxin enzyme, 18:0 Lyso PC substrate, choline assay, room temperature 2 hours; read-out: Inhibitor activity (IC50). The essentials: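 Human autotaxin in 100 mM Tris-HCl pH 7.5, 150 mM NaCl, 5 mM MgCl2, 0.05% Triton X-100 reacted with 18:0 Lyso PC (200 μM stock) and test compound 2 h at room temperature. Released choline quantified via choline oxidase/peroxidase resorufin fluorescence (ex 531/em 598 nm, 20 min); inhibition vs no-compound and no-enzyme controls, concentration-response curve.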

pIC50: −log10 of the molar value.

Turning to `COC(=O)Nc1cc(Cl)ccc1-c1cc(=O)n(CC(=O)NC2(C(F)(F)F)CC2)c(C)n1` [Compound I-0455], the pIC50 (in general, −log10 of the IC50, conventionally taken in molar units) is 7.00 to 8.00.

Turning to `Cc1nc(-c2ccc(Cl)cc2NC(=O)C2CC2)cc(=O)n1CC(=O)NCCNS(C)(=O)=O` [Compound I-0473], the negative-log IC50 (pIC50) was 7.00 to 8.00.

As for `O=C(Cn1c(CCCC(F)(F)F)nc(-c2ccc(Cl)cc2)cc1=O)NC1CCS(=O)(=O)C1` (stereo not drawn) [Compound I-0143], the pIC50 is 7.00 to 8.00.

As for `CCCCCc1nc(-c2ccc(Cl)cc2)cc(=O)n1CC(=O)N1CCC(C(=O)OC)CC1` [Compound I-0113], the pIC50 was 7.00 to 8.00.

Take `C[C@@H]1CN(C(=O)c2cccc(Cn3c(CCCC(F)(F)F)nc(-c4ccc(Cl)cc4)cc3=O)c2)C[C@H](C)O1` [Compound I-0166]: the pIC50 is 6.00 to 7.00.

As to `CC(C)(C)OC(=O)Cn1c(CCCC(F)(F)F)nc(-c2ccc(Cl)cc2CO)cc1=O` [Compound I-0299], the pIC50 was above 8.00.

With `CN1CNC(=O)C12CCN(C(=O)Cn1c(CCCC(F)(F)F)nc(-c3ccc(C(F)(F)F)cc3)cc1=O)CC2` [Compound I-0361], the pIC50 was 7.00 to 8.00.

`CCCCCc1nc(-c2ccc(Cl)cc2)cc(=O)n1CC(=O)N1CCCC1C(=O)O` (stereo not drawn) [Compound I-0068]: the pIC50 was at most 6.00.

Take `COC(=O)c1ccc(Cn2c(CCCC(F)(F)F)nc(-c3ccc(Cl)cc3)cc2=O)o1` [Compound I-0291]: the pIC50 was 7.00 to 8.00.

Regarding `Cc1nc(-c2ccc(F)cc2NC(=O)C(C)(C)C)cc(=O)n1CC(=O)NCC1(CO)COC1` [Compound I-0298], the pIC50 is 6.00 to 7.00.

In the case of `CSc1nc(-c2ccc(Cl)cc2NC(=O)C(C)(C)C)cc(=O)n1CC(=O)NC1(C#N)CC1` [Compound I-0316], the pIC50 was 7.00 to 8.00.

`CC(C)(O)C1CCN(C(=O)Cn2c(CCCC(F)(F)F)nc(-c3ccc(C(F)(F)F)cc3)cc2=O)CC1` [Compound I-0352]: the negative logarithm of the IC50 (pIC50) was 7.00 to 8.00.

As for `CNC(=O)NC1CCN(C(=O)Cn2c(C)nc(-c3ccc(Cl)cc3NC(=O)OC)cc2=O)CC1` [Compound I-0383], the pIC50 is 7.00 to 8.00.

In the case of `CCCCCc1nc(-c2ccc(Cl)cc2)cc(=O)n1CC(=O)N1CCC(CC(=O)O)CC1` [Compound I-0045], the pIC50 was above 8.00.

As for `COC(=O)Nc1cc(Cl)ccc1-c1cc(=O)n(CC(=O)OC(C)(C)C)c(C)n1` [Compound I-0266], the pIC50 was above 8.00.

As for `COC(=O)Nc1cc(Cl)ccc1-c1cc(=O)n(CC(=O)NCC2(CO)CC2)c(C)n1` [Compound I-0275], the pIC50 is 7.00 to 8.00.

For `Cc1nc(-c2ccc(Cl)cc2NC(=O)C2CC2)cc(=O)n1CC(=O)NC(C)(C)C` [Compound I-0405], the pIC50 is 7.00 to 8.00.

Turning to `CCCCCc1nc(-c2ccc(Cl)cc2)cc(=O)n1CC(=O)NC1(c2cccnc2)CC1` [Compound I-0089], the pIC50 was 7.00 to 8.00.

With `CCCCCc1nc(-c2ccc(Cl)cc2)cc(=O)n1CC(=O)NCc1cccc(=O)n1C` [Compound I-0038], the pIC50 is 6.00 to 7.00.

Regarding `CCCCCNc1nc(-c2ccc(C(F)(F)F)cc2)cc(=O)n1Cc1ccc(C(=O)O)cc1` [Compound I-0010], the pIC50 is 6.00 to 7.00.

Take `Cc1nc(-c2ccc(Cl)cc2NC(=O)C2CC2)cc(=O)n1CC(=O)NC1COC1` [Compound I-0404]: the pIC50 was 7.00 to 8.00.

`CC1(O)CN(C(=O)Cn2c(CCCC(F)(F)F)nc(-c3ccc(Cl)cc3CO)cc2=O)C1` [Compound I-0315]: the pIC50 is at most 6.00.

Consider `N#Cc1ccc(-c2cc(=O)n(CC(=O)NC3(C#N)CC3)c(CCCC(F)(F)F)n2)c(F)c1` [Compound I-0235], for which the pIC50 was above 8.00.

For `CN(C(=O)Cn1c(CCCC(F)(F)F)nc(-c2ccc(C(F)(F)F)cc2)cc1=O)C1(C)COC1` [Compound I-0332], the pIC50 is 7.00 to 8.00.

With `O=C(Cn1c(CCCC(F)(F)F)nc(-c2ccc(C(F)(F)F)cc2)cc1=O)NCC1(O)CCCCC1` [Compound I-0344], the negative logarithm of the IC50 (pIC50) was 7.00 to 8.00.

With `CNC(=O)NC1CCN(C(=O)Cn2c(C)nc(-c3ccc(Cl)cc3NC(=O)C3CC3)cc2=O)CC1` [Compound I-0479], the pIC50 is 7.00 to 8.00.

In the case of `CC(C)(C)C(=O)Nc1cc(Cl)ccc1-c1cc(=O)n(CC(=O)Nc2cnccc2O)cn1` [Compound I-0447], the pIC50 is 6.00 to 7.00.

With `CC(=O)Nc1cc(Cl)ccc1-c1cc(=O)n(Cc2cccc(C(=O)O)c2)c(C)n1` [Compound I-0267], the pIC50 is above 8.00.

For `CCCCCc1nc(-c2ccc(Cl)cc2)cc(=O)n1CC(=O)NC(CO)C(=O)O` (stereo not drawn) [Compound I-0052], the pIC50 was above 8.00.

For `CC(C)(C)C(=O)Nc1cc(Cl)ccc1-c1cc(=O)n(CC(=O)N2CCC(C(N)=O)CC2)cn1` [Compound I-0468], the pIC50 was 7.00 to 8.00.

Regarding `CN(C)C(=O)CNC(=O)Cn1c(CCCC(F)(F)F)nc(-c2ccc(Cl)cc2)cc1=O` [Compound I-0127], the pIC50 was 6.00 to 7.00.

For `CCCCCc1nc(-c2ccc(Cl)cc2)cc(=O)n1CC(=O)NCCCCC(=O)O` [Compound I-0064], the pIC50 is above 8.00.

For `C[C@@H]1COC[C@H](C)N1C(=O)Cn1c(CCCC(F)(F)F)nc(-c2ccc(Cl)cc2)cc1=O` [Compound I-0125], the pIC50 is 7.00 to 8.00.

As for `O=C(NCCN1CCNC1=O)c1cccc(Cn2c(CCCC(F)(F)F)nc(-c3ccc(Cl)cc3)cc2=O)c1` [Compound I-0171], the pIC50 is 6.00 to 7.00.

With `COC(=O)Nc1cc(Cl)ccc1-c1cc(=O)n(CC(=O)NC2COC2)c(C)n1` [Compound I-0393], the pIC50 was 7.00 to 8.00.

On to `Cc1nc(-c2ccc(Cl)cc2NC(=O)C2CC2)cc(=O)n1CC(=O)N1CCC(O)CC1` [Compound I-0435], for which the pIC50 is 7.00 to 8.00.

For the compound `CCCCCc1nc(-c2ccc(Cl)cc2)cc(=O)n1CC(=O)NCCO` [Compound I-0027], the pIC50 is 6.00 to 7.00.

Turning to `CCNS(=O)(=O)CCNC(=O)Cn1c(CCCC(F)(F)F)nc(-c2ccc(Cl)cc2)cc1=O` [Compound I-0145], the pIC50 is 7.00 to 8.00.

Take `O=C(Cn1c(COCC2CC2)nc(-c2ccc(Cl)cc2)cc1=O)NCC1(CO)CC1` [Compound I-0212]: the pIC50 was 6.00 to 7.00.

Regarding `O=C(Cn1cnc(-c2ccc(Cl)cc2)cc1=O)NC(Cc1ccccc1)C(=O)O` (stereo not drawn) [Compound I-0396], the pIC50 is at most 6.00.

In the case of `CCCCCc1nc(-c2ccc(Cl)cc2)cc(=O)n1CC(=O)NC(C)(C)C(=O)O` [Compound I-0056], the pIC50 was above 8.00.

With `CCCCCc1nc(-c2ccc(Cl)cc2)cc(=O)n1CC(=O)NCC1CCC(=O)NC1` (stereo not drawn) [Compound I-0037], the pIC50 was 6.00 to 7.00.

`COCCCc1nc(-c2ccc(Cl)cc2)cc(=O)n1CC(=O)NCC1(CO)CC1` [Compound I-0231]: the pIC50 is 6.00 to 7.00.

Take `CCCCCc1nc(-c2ccc(Cl)cc2)cc(=O)n1CC(=O)NCC1(CO)CC1` [Compound I-0033]: the pIC50 was 7.00 to 8.00.

As for `COC(=O)Nc1cc(Cl)ccc1-c1cc(=O)n(CC(=O)N(C)C2(CO)CCCC2)c(C)n1` [Compound I-0302], the pIC50 is 7.00 to 8.00.

For `COC(=O)c1cccc(Cn2c(CCCC(F)(F)F)nc(-c3ccc(Cl)cc3)cc2=O)c1` [Compound I-0111], the negative logarithm of the IC50 (pIC50) is 7.00 to 8.00.

As to `CCCCCc1nc(-c2ccc(Cl)cc2)cc(=O)n1CC(=O)NCC(=O)O` [Compound I-0065], the pIC50 was 7.00 to 8.00.

On to `Cc1nc(-c2ccc(Cl)cc2NC(=O)C2CC2)cc(=O)n1CC(=O)N1CCC(CC(=O)OC(C)(C)C)CC1` [Compound I-0496], for which the pIC50 was 7.00 to 8.00.

In the case of `CCCCCc1nc(-c2ccc(Cl)cc2)cc(=O)n1CC(=O)N[C@@H](CO)Cc1ccccc1` [Compound I-0092], the pIC50 was 6.00 to 7.00.

Turning to `CCCCCc1nc(-c2ccc(Cl)cc2)cc(=O)n1CC(=O)NC1(C#N)CCCCC1` [Compound I-0077], the pIC50 is 6.00 to 7.00.

Consider `CCCCCc1nc(-c2ccc(Cl)cc2)cc(=O)n1CC(=O)Nc1cc(C2CC2)no1` [Compound I-0099], for which the pIC50 was at most 6.00.

As for `CC(C)(C)OC(=O)Cn1c(CCC(F)(F)F)nc(-c2ccc(Cl)cc2NC(=O)C(C)(C)C)cc1=O` [Compound I-0341], the pIC50 is 6.00 to 7.00.

For `CC(C)CC1CCN(c2cc(=O)n(CC(=O)NC3(C#N)CC3)c(CCCC(F)(F)F)n2)C1` (stereo not drawn) [Compound I-0240], the pIC50 was 6.00 to 7.00.

On to `CCCCCc1nc(-c2ccc(Cl)cc2)cc(=O)n1CC(=O)NC(C)C` [Compound I-0026], for which the pIC50 was 7.00 to 8.00.

As for `CC(C)(C)C(=O)Nc1cc(Cl)ccc1-c1cc(=O)n(Cc2cccc(C(=O)Nc3cccnc3O)c2)cn1` [Compound I-0492], the pIC50 is 7.00 to 8.00.

As to `Cc1nc(-c2ccc(Cl)cc2NC(=O)C2CC2)cc(=O)n1CC(=O)N1CC(F)C1` [Compound I-0408], the pIC50 was 6.00 to 7.00.

On to `O=C(Cn1c(CCCC(F)(F)F)nc(-c2ccc(C(F)(F)F)cc2)cc1=O)NC1(c2cccnc2)CC1` [Compound I-0347], for which the pIC50 is 7.00 to 8.00.

Take `COC(=O)Nc1cc(Cl)ccc1-c1cc(=O)n(CC(=O)NC2(C)CC2)c(C)n1` [Compound I-0392]: the pIC50 was 7.00 to 8.00.

`O=C(NCCCO)c1cccc(Cn2c(CCCC(F)(F)F)nc(-c3ccc(Cl)cc3)cc2=O)c1` [Compound I-0163]: the pIC50 is 6.00 to 7.00.

Regarding `CCCOCc1nc(-c2ccc(Cl)cc2)cc(=O)n1CC(=O)NC1(CO)CC1` [Compound I-0204], the pIC50 was 6.00 to 7.00.

Take `O=C(c1cccc(Cn2c(CCCC(F)(F)F)nc(-c3ccc(Cl)cc3)cc2=O)c1)N(CCO)Cc1ccccc1` [Compound I-0198]: the pIC50 is 6.00 to 7.00.

In the case of `CNc1cc(Cl)ccc1-c1cc(=O)n(CC(=O)NC2(C#N)CC2)c(CCCC(F)(F)F)n1` [Compound I-0224], the pIC50 was 6.00 to 7.00.

With `N#CCc1cc(OC(F)(F)F)ccc1-c1cc(=O)n(CC(=O)NC2(C#N)CC2)c(CCCC(F)(F)F)n1` [Compound I-0220], the pIC50 was 7.00 to 8.00.

As to `COC(=O)Nc1cc(C#N)ccc1-c1cc(=O)n(Cc2cccc(-c3nc(=O)o[nH]3)c2)c(C)n1` [Compound I-0378], the pIC50 is above 8.00.

Turning to `Cc1nc(C2=CCC(C(F)(F)F)CC2)cc(=O)n1CC(=O)NCC1(CO)COC1` (stereo not drawn) [Compound I-0268], the pIC50 was at most 6.00.

As to `CCCCCc1nc(-c2ccc(Cl)cc2)cc(=O)n1CC` [Compound I-0006], the pIC50 was at most 6.00.
